Test results taken from patent US20230406821A1, “STRIGOLACTONE DERIVATIVES” (Plant Response, Inc., priority 2017, published 2023).

Columns and labels:
[1] = tested on: BRANCHED1 (BRC1) gene; test: BRC1 gene expression by RT-PCR in sprayed seedlings; format: in vivo, Arabidopsis thaliana; conditions: Col-0 seedlings, foliar spray, 0.4% DMSO, shoots harvested 24 hours later; similarly to GR24 (FIG. 2)
Excerpt: FIG. 2 is a boxplot representing Ct value distributions of BRC1 relative to constitutive control Ct values plotted as ΔCt. Due to the non-normal distribution of the BRC1 data, non-parametric Mann-Whitney U-tests were used to assess statistical significance. Stars indicate significant differences relative to the DMSO control (**: adjustedp-value <0.001; *: adjusted p-value <0.01; p-values adjusted for multiple-hypothesis testing with the Bonferroni correction). […]
Another experiment was performed to consider an aspect of molecular signal transduction. A number of genes in Arabidopsis thaliana are well known downstream signaling targets of the native strigolactone pathway. […]
In this experiment sterilized and stratified seeds of the A. thaliana Columbia (Col-0) were planted on growth media (Murashige and Skoog (MS) M404 with vitamins (2.2 g/L), 0.5% sucrose, 0.05% IVIES hydrate, 0.6% PhytoBlend™) for eight days in a growth chamber under 16 hours of light per day at 22° C. and 19° C. nights. […] Total RNA was extracted and RT-PCR quantification was performed using kits from Macherey-Nagel and Bioline and an ABI 7900HT instrument. […]

[2] = tested on: Arabidopsis thaliana homozygous max4 knockout mutant; test: Complementation of ectopic shoot branching in max4 strigolactone biosynthesis mutant; format: in vivo; conditions: max4 mutant line, 10 μM in 0.5× Hoagland's reservoir solution, 0.1% DMSO, 3 weeks of treatment, vs DMSO control (FIG. 1)
Excerpt: FIG. 1 is a plot of the number of secondary bolts over 0.5 cm long of strigolactone biosynthesis mutant, homozygous max4 knockout, plants that have a primary bolt over 6 cm long treated with solution containing control solvent DMSO, strigolactone molecule MBS-127 in DMSO, and strigolactone molecule MBS-128 in DMSO. Stars indicate significant differences relative to the DMSO control based on the Welch's t-test (*: adjusted p-value <0.1; p-values adjusted for multiple-hypothesis testing
The ability of a novel compound to act in an equivalent manner to a native strigolactone can be assessed by testing its ability to complement phenotypes caused by mutations that disrupt the natural biosynthesis of strigolactones within the plant.
The metric used to assess branching was the number of secondary bolts over 0.5 cm in length in plants that have a primary bolt over 6 cm long. Assessments were made after treatments with solution containing control solvent DMSO, the strigolactone molecule MBS-127 in DMSO, and the strigolactone molecule MBS-128 in DMSO as detailed below. Stratified A. thaliana homozygous max4 knockout mutant seeds were planted on rockwool plugs suspended above reservoirs of 0.5× Hoagland's solution. The plants were grown under 16 hours of light per day at 22° C. and at 19° C. during the nights throughout the experiment. […]

[3] = tested on: A. thaliana Columbia (Col-0) seedlings; test: Desiccation stress survival assay of seedlings; format: in vivo, Arabidopsis thaliana; conditions: 50 μM in media, 0.4% DMSO, three days, 4 hours desiccation, seven days recovery (FIG. 5)
Excerpt: Post germination desiccation is an extreme form of dehydration which can be used as a survival assay for testing abiotic stress tolerance in plants. While desiccation stress is distinct from the gradual onset of drought typically experienced in an agricultural setting, the response in the plant has many commonalities across both cases (Fernando, V. C., & Schroeder, D. F. “Role of ABA in Arabidopsis Salt, Drought, and Desiccation Tolerance,” (2016), pp. 507-518), and increased tolerance in one case can often predict tolerance in the other.
In this experiment sterilized and stratified seeds of the A. thaliana Columbia (Col-0) were planted on growth media (Murashige and Skoog (MS) M404 with vitamins (2.2 g/L), 0.5% sucrose, 0.05% IVIES hydrate, 0.6% PhytoBlend™) and grown for nine days in a growth chamber with continuous light at 22° C. The seedlings were then transplanted to same media supplemented with the control solvent DMSO, strigolactone molecule MBS-127 in DMSO, or strigolactone molecule MBS-128 in DMSO. The final concentration of DMSO in the media was 0.4% and the concentration of MBS-127 and MBS-128 was 50 μM. After three days of growth on the treatment media the seedlings were photographed and then transplanted to dry filter paper and subjected to 4 hours of desiccation stress. […]

SMILES | expression of the BRC1 gene (ΔCt) [1] | ectopic branching phenotype (number of secondary bolts over 0.5 cm on plants with primary bolt over 6 cm) [2] | survival and vigor of seedlings exposed to severe desiccation stress [3]
COC(=O)/C=C/OC1C=C(C)C(=O)O1 (stereo not drawn) [MBS-127, 3-(4-Methyl-5-oxo-2,5-dihydro-furan-2-yloxy)-acrylic acid methyl ester] | induced expression of the BRC1 gene | effective in reducing the ectopic branching phenotype | increase the survival and vigor
COC(=O)/C=C/OC1(C)C=C(C)C(=O)O1 (stereo not drawn) [MBS-128, methyl (E)-3-((2,4-dimethyl-5-oxo-2,5-dihydrofuran-2-yl)oxy)acrylate] | induced expression of the BRC1 gene | effective in reducing the ectopic branching phenotype | increase the survival and vigor
